{"source": "patent US20190060330A1", "about": "“APPLICATION OF 4-HYDROXY SALICYLANILIDE IN PREPARATION OF ANTI-MYELOMA OR ANTI-LYMPHOMA DRUGS” (priority 2016, published 2019)", "key": {"H929 cells [1]": {"test_system": "H929 cells", "test": "Animal experiment for multiple myeloma: subcutaneous H929 tumors in nude mice", "assay_type": "in vivo, BALB/C nude mice", "conditions": "for Tumor volume, individual mice No. 1-4 / Tumor volume, mean: 100 mg/kg per day, caudal vein", "description": "(1) Cell line: human multiple myeloma cells (H929 cells) (from ATCC, USA. The cells were passaged and preserved in the applicant's laboratory), were cultured in a 1640 culture medium (containing 10% fetus bovine serum).\n(2) Experimental animals: Male BALB/C nude mice (4-6 week old, purchased from Shanghai Sippr-BK laboratory animal Co. Ltd), were housed in an SPF condition (Center Laborotory Animal Room, Shanghai Tenth People's Hospital).\nThe cells were cultured in 1640 a 1640 culture medium (containing 10% fetus bovine serum, pH 7.2) supplemented with 2 mmol/L glutamine. The resultant was cultured in a incubator at 37° C. under 5% CO2 environment.\n(§1) The 1640 medium containing 3.5×10^6 H929 cells was injected subcutaneously into the right axilla of the nude mice, and when the tumors grew to a measurable size, the mice were randomly assigned into the control group and the administration group. The nude mice in the administration group were injected through caudal vein with 4-hydroxy salicylanilide at 50 mg/kg and 100 mg/kg per day. The nude mice in the control group were injected with the same volume of solvent (200 μL, 5% DMSO+4% castor oil+91% normal saline). The tumor sizes were measured every two days (measuring the length and width of the tumor, tumor volume=0.5×(width)^2×length). The mice were sacrificed after a 22-day administration and the tumors were taken for taking photos."}, "H929 cells [2]": {"test_system": "H929 cells", "test": "CCK8 cytotoxicity, H929 multiple myeloma cells", "assay_type": "cell-based", "conditions": "Homo sapiens, NCI-H929, 72 h", "description": "(§2) (1) Cell lines: human multiple myeloma cells (H929 cells, OPM2 cells, U266 cells, OCI-MY5 cells, RPMI 8266 cells) (from ATCC of USA. The cells were passaged and preserved in the applicant's laboratory), were cultured in a 1640 culture medium (containing 10% fetus bovine serum).\n(§3) The cells were cultured in 1640 medium (containing 10% fetal bovine serum, pH 7.2) supplemented with 2 mmol/L glutamine. The cells were cultured in a cell culture incubator at 37° C., 5% CO2.\n(§4) A single-cell suspension of human multiple myeloma cells (H929 cells, OPM2 cells, U266 cells, OCI-MY5 cells, RPMI 8266 cells) was taken for cell counting, and the cell concentration was adjusted to 2×10^5 cells/mL. 95 μL of the above cell suspension was added into each well of a 96-well culture plate, and then 5 μL of the drug prepared with the medium was added at different concentrations, while the same volume of culture medium was added in the control group. Three parallel wells were set in each group. The plate was subjected to continuous culture for 72 h. 2 hours before the end of the culture, 10 μL of CCK8 reagent was added into each well, and the plate was continued to culture in a CO2 incubator. After 2 hours, the OD value of each well at 450 nm was detected by an automatic microplate reader. […]"}, "OCI-MY5 cells": {"test_system": "OCI-MY5 cells", "test": "CCK8 cytotoxicity, OCI-MY5 multiple myeloma cells", "assay_type": "cell-based", "conditions": "Homo sapiens, 72 h", "description": "as §2, §3, §4"}, "OCI-LY1 cells": {"test_system": "OCI-LY1 cells", "test": "CCK8 cytotoxicity, OCI-LY1 lymphoma cells", "assay_type": "cell-based", "conditions": "Homo sapiens, 72 h", "description": "(§5) A single-cell suspension of human multiple myeloma cells (H929 cells, OPM2 cells, U266 cells, OCI-MY5 cells, RPMI 8266 cells) was taken for cell counting, and the cell concentration was adjusted to 2×10^5 cells/mL. 95 μL of the above cell suspension was added into each well of a 96-well culture plate, and then 5 μL of the drug prepared with the medium was added at different concentrations, while the same volume of culture medium was added in the control group. Three parallel wells were set in each group. The plate was subjected to continuous culture for 72 h. 2 hours before the end of the culture, 10 μL of CCK8 reagent was added into each well, and the plate was continued to culture in a CO2 incubator. After 2 hours, the OD value of each well at 450 nm was detected by an automatic microplate reader. Cell viability and inhibition rate were calculated: cell viability (%)=(OD mean of experimental well/OD mean of control well)×100%. Cell inhibition rate (%)=100%−cell viability (%). The fitting function was used to determine the IC50 of the drug concentration when the cell growth was inhibited by 50%. The experiment was in triplicate.\n(§6) Cell lines: human lymphoma cells (SUDHL-4 cells, OCI-LY1 cells, OCI-LY8 cells, DB cells, NU-DUL-1 cells, U2932 cells, TMD8 cells)(from ATCC. USA. The cells were passaged and preserved in the applicant's laboratory). IMDM (Gibco Co., USA). […]"}, "OCI-LY8 cells": {"test_system": "OCI-LY8 cells", "test": "Animal experiment against lymphoma: subcutaneous OCI-LY8 tumors in nude mice", "assay_type": "in vivo, BALB/C nude mice", "conditions": "60 mg/kg every other day, caudal vein, 18 days", "description": "(1) Cell lines: human lymphoma cells (OCI-LY8 cells) (from ATCC, USA. The cells were passaged and preserved in the applicant's laboratory) were cultured in IMDM (containing 10% fetus bovine serum).\n(2) Experimental animals: referring to Example 2.\nas §1, with “IMDM” for “1640 medium”, “3×10^6 OCI-LY8” for “3.5×10^6 H929”, “60” for “50”, “ever other” for “and 100 mg/kg per”, “volume=4π/3×(width/2)^2×(length/2)).” for “volume=0.5×(width)^2×length).”, “18-day” for “22-day”"}, "U2932 cells": {"test_system": "U2932 cells", "test": "CCK8 cytotoxicity, U2932 lymphoma cells", "assay_type": "cell-based", "conditions": "Homo sapiens, 72 h", "description": "as §5, §6"}, "SUDHL-4 cells": {"test_system": "SUDHL-4 cells", "test": "CCK8 cytotoxicity, SUDHL-4 lymphoma cells", "assay_type": "cell-based", "conditions": "Homo sapiens, SU-DHL-4, 72 h", "description": "as §5, §6"}, "DB cells": {"test_system": "DB cells", "test": "CCK8 cytotoxicity, DB lymphoma cells", "assay_type": "cell-based", "conditions": "Homo sapiens, 72 h", "description": "as §5, §6"}, "U266 cells": {"test_system": "U266 cells", "test": "CCK8 cytotoxicity, U266 multiple myeloma cells", "assay_type": "cell-based", "conditions": "Homo sapiens, U-266, 72 h", "description": "as §2, §3, §4"}, "TMD8 cells": {"test_system": "TMD8 cells", "test": "CCK8 cytotoxicity, TMD8 lymphoma cells", "assay_type": "cell-based", "conditions": "Homo sapiens, 72 h", "description": "as §5, §6"}}, "note": "Where “and” joins values, the source holds several entries; their conditions need not be identical. Identical values can stand only once. Entries after “also recorded” stand apart in the source; their conditions may differ.", "data": [{"smiles": "O=C(Nc1ccc(O)cc1)c1ccccc1O", "values": [{"measurement": "Tumor volume, individual mice No. 1-4", "setting": "H929 cells [1]; day 2", "value": "0.12 cm^3 and 0.09 cm^3 and 0.08 cm^3 (2×)"}, {"measurement": "Tumor volume, mean", "setting": "H929 cells [1]; day 2", "value": 0.09, "unit": "cm^3"}, {"measurement": "Tumor volume, individual mice No. 1-4", "setting": "H929 cells [1]; day 4", "value": "0.13 cm^3 (2×) and 0.14 cm^3 and 0.10 cm^3"}, {"measurement": "Tumor volume, mean", "setting": "H929 cells [1]; day 4", "value": 0.13, "unit": "cm^3"}, {"measurement": "Tumor volume, individual mice No. 1-4", "setting": "H929 cells [1]; day 6", "value": "0.17 cm^3 (2×) and 0.15 cm^3 and 0.13 cm^3"}, {"measurement": "Tumor volume, mean", "setting": "H929 cells [1]; day 6", "value": 0.16, "unit": "cm^3"}, {"measurement": "Tumor volume, individual mice No. 1-4", "setting": "H929 cells [1]; day 8", "value": "0.26 cm^3 and 0.20 cm^3 and 0.25 cm^3 and 0.17 cm^3"}, {"measurement": "Tumor volume, mean", "setting": "H929 cells [1]; day 8", "value": 0.22, "unit": "cm^3"}, {"measurement": "Tumor volume, individual mice No. 1-4", "setting": "H929 cells [1]; day 10", "value": "0.39 cm^3 and 0.23 cm^3 (2×) and 0.31 cm^3"}, {"measurement": "Tumor volume, mean", "setting": "H929 cells [1]; day 10", "value": 0.29, "unit": "cm^3"}, {"measurement": "Tumor volume, individual mice No. 1-4", "setting": "H929 cells [1]; day 12", "value": "0.53 cm^3 and 0.31 cm^3 and 0.39 cm^3 and 0.25 cm^3"}, {"measurement": "Tumor volume, mean", "setting": "H929 cells [1]; day 12", "value": 0.37, "unit": "cm^3"}, {"measurement": "Tumor volume, individual mice No. 1-4", "setting": "H929 cells [1]; day 14", "value": "0.77 cm^3 and 0.42 cm^3 and 0.44 cm^3 and 0.27 cm^3"}, {"measurement": "Tumor volume, mean", "setting": "H929 cells [1]; day 14", "value": 0.47, "unit": "cm^3"}, {"measurement": "Tumor volume, individual mice No. 1-4", "setting": "H929 cells [1]; day 16", "value": "0.93 cm^3 and 0.49 cm^3 and 0.50 cm^3 and 0.32 cm^3"}, {"measurement": "Tumor volume, mean", "setting": "H929 cells [1]; day 16", "value": 0.56, "unit": "cm^3"}, {"measurement": "Tumor volume, individual mice No. 1-4", "setting": "H929 cells [1]; day 18", "value": "1.20 cm^3 and 0.57 cm^3 (2×) and 0.31 cm^3"}, {"measurement": "Tumor volume, mean", "setting": "H929 cells [1]; day 18", "value": 0.66, "unit": "cm^3"}, {"measurement": "Tumor volume, individual mice No. 1-4", "setting": "H929 cells [1]; day 20", "value": "1.27 cm^3 and 0.63 cm^3 and 0.65 cm^3 and 0.34 cm^3"}, {"measurement": "Tumor volume, mean", "setting": "H929 cells [1]; day 20", "value": 0.72, "unit": "cm^3"}, {"measurement": "Tumor volume, individual mice No. 1-4", "setting": "H929 cells [1]; day 22", "value": "1.39 cm^3 and 0.71 cm^3 and 0.80 cm^3 and 0.40 cm^3"}, {"measurement": "Tumor volume, mean", "setting": "H929 cells [1]; day 22", "value": 0.82, "unit": "cm^3"}, {"measurement": "Inhibition of tumor growth in animals (in words)", "setting": "H929 cells [1]; H929 tumors in nude mice, 50 and 100 mg/kg per day, 22 days, dose-dependent, P<0.01 at day 22", "value": "significantly inhibit the tumor growth; also recorded: effective in inhibiting the growth of multiple myeloma"}, {"measurement": "IC50", "setting": "H929 cells [2]", "value": 179, "unit": "µM"}, {"measurement": "IC50", "setting": "OCI-MY5 cells", "value": 211, "unit": "µM"}, {"measurement": "IC50", "setting": "OCI-LY1 cells", "value": 117, "unit": "µM"}, {"measurement": "Inhibition of growth of lymphoma in nude mice (in words)", "setting": "OCI-LY8 cells", "value": "effectively inhibit the growth of lymphoma"}, {"measurement": "IC50", "setting": "U2932 cells", "value": 156, "unit": "µM"}, {"measurement": "IC50", "setting": "SUDHL-4 cells", "value": 73, "unit": "µM"}, {"measurement": "IC50", "setting": "DB cells", "value": 178, "unit": "µM"}, {"measurement": "IC50", "setting": "U266 cells", "value": 271, "unit": "µM"}, {"measurement": "IC50", "setting": "TMD8 cells", "value": 164, "unit": "µM"}]}]}
